# Read-outs that look alike come from different tables or passages of the source.
# Columns and labels:
# U87MG tumor-bearing mice = assay: Logan graphical analysis with image-derived input function of 60-min dynamic PET: volumes of distribution; type: in vivo, mouse; details: mean ± SD, n = 4/group
# Description: (§1) Dynamic PET data acquisition was performed using an Inveon microPET scanner (Siemens Medical Solutions). With the assistance of the Inveon system's positioning laser, U87MG tumor-bearing mouse was placed with its tumor located at the center of field of view (FOV), where the highest imaging sensitivity can be achieved. […] During the acquisition period, a thermostat-controlled thermal heater maintained the body temperature of mice. PET images were reconstructed with 2 iterations of 3-dimensional ordered-subsets expectation maximum (3D OSEM) with 14 subsets, followed by 18 iterations of maximum a posteriori (MAP) algorithm with a smoothing parameter of 0.1 (frame rates: 10×30 s, 5×60 s, 5×120 s and 10×240 s). No attenuation correction was performed in this study.
# (§2) In the dynamic PET image analysis, regions of interest (ROIs) were measured with the Inveon Research Workplace (IRW) 3.0 software. ROI was determined by manually superimposing the ellipsoid volume of interest (VOI) to the target tissue on the last frame of the entire 60-min dynamic image sequence. Then a threshold of 30% maximum was set to screen the voxels with lower values in the entire VOI because of possible tumor heterogeneity and shape irregularity. The time–activity curves were derived by superimposing the same VOI on each time frame of the entire 60-min dynamic image sequence and the value of each time point represents the overall concentration of radioactivity in the tissue. The activity concentrations were determined by the mean pixel intensity within each VOI, which were converted to µCi/ml using a calibration constant. Assuming the tissue density of 1 g/ml, the ROI activity was converted to µCi/g and normalized as percent injected dose per gram (%ID/g). The tissue uptake quantification of static scan at 60 min was determined from the last frame of dynamic images. The arterial blood input function was estimated by drawing a VOI in the region of left ventricle on the reconstructed PET image at the 0.5 min time point (the second frame of dynamic PET image series). The region of muscle contralateral to the tumor was selected as the reference tissue.
# Kinetic analysis of regional TACs was performed based on two-tissue (three-compartment) and one-tissue (two-compartment) model (Fig. 2). The three-compartment model consists of unmetabolized radiotracer in arterial blood plasma (Cp), free or non-specific binding tracer in interstitial and intracellular space (Ct), and tracer bound specifically to integrin (Cm). Both Ct and Cm occupy the same physical volume. The ROI(t) represents the sum of radioactivity from all compartments and includes the plasma volume fraction. Similarly, the two-compartment model describes RGD tracer kinetics using muscle as reference tissue and Ctref represents free (non-specific binding) tracer in the reference tissue (muscle) region. Generally speaking, kinetic parameters K1 [ml/g/min], k2 [1/min], k3 [1/min], k4 [1/min] represent the transport or binding rates of plasma perfusion into tissue, clearance from plasma, specific binding and dissociation, respectively.
# Based on Logan plot shown in Eq. 1 [28], [33], the ratio between the integral of Cp(t) and the instantaneous value of ROI(t), and the ratio between the integral and the instantaneous value of ROI(t) become linearly related when the exchange between the target tissue and plasma reaches an equilibrium (t>t*). [drawing 1] (1) DV denotes the distribution volume and can be easily calculated from the linear regression. DV is a measure of the capacity of tissue to bind a particular tracer and can be regarded as the sum of specific (VS) and nonspecific distribution (VND). [drawing 2] (2) [drawing 3] (3) Total volume of distribution is defined in equation 4. [drawing 4] (4) K1, k2, k3, and k4 are calculated by linear fitting to 60-min dynamic PET data.
# [1] = Static PET image quantification of tissue uptake at 60 min (last frame of dynamic scan); type: in vivo; details: female, athymic nude, mouse, iv, 3.7 MBq, total radioactivity, tail-vein injection ~3.7 MBq, static PET image at 1 h, mean ± SD, n = 4/group
# Description: The U87MG human glioblastoma tumor model, which has been documented to express high level of integrin αvβ3 [32], was selected for PET imaging. The U87MG cells obtained from ATCC (Manassas, VA) were cultured in DMEM medium supplemented with 10% fetal bovine serum (FBS), 100 IU/mL penicillin, and 100 µg/mL streptomycin (Invitrogen), and in a humidified atmosphere containing 5% CO2 at 37°C. The xenografted model was established by inoculation of 5×10^6 cells into the left shoulder of each female athymic nude mouse at 5–6 weeks of age (Harlan Laboratories). Tumor growth was monitored by caliper measurements of perpendicular axes of the tumor three times a week after the tumors are palpable. The tumor volume was determined as the formula: V = a×(b^2)/2, where a and b are the length and width of each tumor, respectively, in mm. The U87MG xenografted mice underwent PET imaging when the tumor volume reached about 300 mm^3 (about 3 weeks after inoculation). This study was approved by the NIH Clinical Center Animal Care and Use Committee (ACUC). Moreover, all mice were maintained in a specific pathogen-free facility in accordance with the requirements of the ACUC.
# as §1, §2
# [2] = kidneys, U87MG tumor-bearing mice, read-out: Tissue uptake, Kidneys
# [3] = liver, U87MG tumor-bearing mice, read-out: Tissue uptake, Liver
# [4] = muscle, U87MG tumor-bearing mice, read-out: Tissue uptake, Muscle
# [5] = tumor (U87MG xenograft), U87MG xenograft, female athymic nude mice, read-out: Tissue uptake, Tumor
SMILES,"Volume of Distribution (VT), Kidneys (U87MG tumor-bearing mice)","Volume of Distribution (VT), Liver (U87MG tumor-bearing mice)","Volume of Distribution (VT), Muscle (U87MG tumor-bearing mice)","Volume of Distribution (VT), Tumor (U87MG tumor-bearing mice)","tissue uptake at 1 h [1, 2] [%ID/g]","tissue uptake at 1 h [1, 3] [%ID/g]","tissue uptake at 1 h [1, 4] [%ID/g]","tissue uptake at 1 h [1, 5] [%ID/g]"
N=C(N)NCCC[C@@H]1NC(=O)[C@H](CCCCNC(=O)CC[C@H](NC(=O)COCCOCCOCCNC(=S)Nc2ccc(C[C@H]3CN(CC(=O)O)CCN(CC(=O)O)CCN3CC(=O)O)cc2)C(=O)NCCCC[C@@H]2NC(=O)[C@@H](Cc3ccc(O)cc3)NC(=O)[C@H](CC(=O)O)NC(=O)CNC(=O)[C@H](CCCNC(=N)N)NC2=O)NC(=O)[C@@H](Cc2ccc(O)cc2)NC(=O)[C@H](CC(=O)O)NC(=O)CNC1=O [[^18F]AlF-NOTA-PRGD2] [listing 1 of 2 here],5.24±0.24,1.23±0.085,0.53±0.086,2.65±0.34,–,–,–,–
N=C(N)NCCC[C@@H]1NC(=O)[C@H](CCCCNC(=O)CC[C@H](NC(=O)COCCOCCOCCNC(=S)Nc2ccc(C[C@H]3CN(CC(=O)O)CCN(CC(=O)O)CCN3CC(=O)O)cc2)C(=O)NCCCC[C@@H]2NC(=O)[C@@H](Cc3ccc(O)cc3)NC(=O)[C@H](CC(=O)O)NC(=O)CNC(=O)[C@H](CCCNC(=N)N)NC2=O)NC(=O)[C@@H](Cc2ccc(O)cc2)NC(=O)[C@H](CC(=O)O)NC(=O)CNC1=O [[^68Ga]Ga-NOTA-PRGD2] [metal not drawn],3.37±0.56,1.24±0.11,0.57±0.064,2.07±0.12,–,–,–,–
"CC(F)C(=O)NCCOCCOCCOCC(=O)N[C@@H](CCC(=O)NCCCC[C@@H]1NC(=O)[C@@H](Cc2ccc(O)cc2)NC(=O)[C@H](CC(=O)O)NC(=O)CNC(=O)[C@H](CCCNC(=N)N)NC1=O)C(=O)NCCCC[C@@H]1NC(=O)[C@@H](Cc2ccc(O)cc2)NC(=O)[C@H](CC(=O)O)NC(=O)CNC(=O)[C@H](CCCNC(=N)N)NC1=O (some centres unmarked) [[^18F]FPPRGD2, reference compound]",4.10±0.27,0.97±0.14,0.44±0.071,2.35±0.22,2.78 ± 0.58,1.1 ± 0.18,0.36 ± 0.089,2.91 ± 0.35
"N=C(N)NCCC[C@@H]1NC(=O)[C@H](CCCCNC(=O)CC[C@H](NC(=O)COCCOCCOCCNC(=S)Nc2ccc(C[C@H]3CN(CC(=O)O)CCN(CC(=O)O)CCN3CC(=O)O)cc2)C(=O)NCCCC[C@@H]2NC(=O)[C@@H](Cc3ccc(O)cc3)NC(=O)[C@H](CC(=O)O)NC(=O)CNC(=O)[C@H](CCCNC(=N)N)NC2=O)NC(=O)[C@@H](Cc2ccc(O)cc2)NC(=O)[C@H](CC(=O)O)NC(=O)CNC1=O [[^68Ga]Ga-NOTA-PRGD2, metal not drawn]",–,–,–,–,–,–,–,2.42 ± 0.56
N=C(N)NCCC[C@@H]1NC(=O)[C@H](CCCCNC(=O)CC[C@H](NC(=O)COCCOCCOCCNC(=S)Nc2ccc(C[C@H]3CN(CC(=O)O)CCN(CC(=O)O)CCN3CC(=O)O)cc2)C(=O)NCCCC[C@@H]2NC(=O)[C@@H](Cc3ccc(O)cc3)NC(=O)[C@H](CC(=O)O)NC(=O)CNC(=O)[C@H](CCCNC(=N)N)NC2=O)NC(=O)[C@@H](Cc2ccc(O)cc2)NC(=O)[C@H](CC(=O)O)NC(=O)CNC1=O [[^18F]AlF-NOTA-PRGD2] [listing 2 of 2 here],–,–,–,–,4.67 ± 1.08,1.21 ± 0.54,0.53 ± 0.11,–

# Source: PMC3356326 (PLoS ONE, 2012)
